Measurements from PMC8617031, “Development of a BCL-xL and BCL-2 dual degrader with improved anti-leukemic activity,” (Nature Communications, 2021).
Several values for one entry are separate records, joined by “and”; a condition that tells them apart may be missing. Identical values can stand only once. Like-named read-outs stand apart in the source and are kept apart here.

Experiments:
His-tagged BCL-2 = target: T1, His-tagged BCL-2 (Homo sapiens, UniProt P10415); test: AlphaScreen competitive binary binding, BCL-2 (biotin-BIM peptide); conditions: for Alpha signal normalised to Maximum/Minimum (inhibition): in % (unit assumed); for inhibition at 0.0195312 µM / inhibition at 0.078125 µM / inhibition at 0.3125 µM / inhibition at 1.25 µM / inhibition at 5 µM: read-out: Alpha signal normalised to Maximum/Minimum (inhibition)
T1 construct: purchased Sigma-Aldrich SRP0186
T1 sequence (P10415 whole entry): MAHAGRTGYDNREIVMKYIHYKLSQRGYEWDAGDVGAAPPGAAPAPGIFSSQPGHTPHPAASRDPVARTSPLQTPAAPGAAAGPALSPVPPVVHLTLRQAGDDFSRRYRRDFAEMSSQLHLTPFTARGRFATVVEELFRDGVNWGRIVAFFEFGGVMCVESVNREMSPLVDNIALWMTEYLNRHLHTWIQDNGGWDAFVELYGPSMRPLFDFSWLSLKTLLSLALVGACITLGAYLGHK
Outline: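 His-tagged BCL-xL (0.5 nM) with 2 nM biotin-BAD peptide, or BCL-2 (1 nM) with 10 nM biotin-BIM peptide, was incubated 2 h with serially diluted compound in HEPES pH 7.5 buffer containing NaCl, BSA and Tween-80. AlphaScreen signal came from His-acceptor and streptavidin-donor beads at 20 µg/ml each. Ki was fitted by competitive binding using measured Kd per protein–peptide pair.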

293T cells = test: Viability (MTS) of 293T cells; format: cell-based, human; conditions: for 293T cell viability, MTS absorbance 490 as percent of control, mean of three wells, left block of Plate 29: mean of 3 wells, Plate 29 normalised with blank 0.332667 and control 0.923167 of Plate 30; for 293T cell viability, MTS absorbance 490 as percent of untreated control, single replicate well: normalised to own plate
Method: (§1) Suspension cells were treated 30 min after seeding, whereas adherent cells were allowed to adhere overnight and were then treated. Compound treatments were prepared in complete cell culture medium and 100 µl of 2× treatment-containing medium were added to each well. Complete cell culture medium without treatment was added in control wells, and wells containing medium without cells served as background. The outer wells of the 96-well plate were not used for treatment and were filled with 250 µl of PBS to reduce evaporation of medium from inner wells. Each compound and/or combination was tested at nine different concentrations with three replicates. The cell viability was measured after 72 h by tetrazolium-based MTS assay. MTS reagent (2 mg ml^–1 stock; cat. no. G1111, Promega) was freshly supplemented with phenazine methosulfate (PMS, 0.92 mg ml^–1 stock, cat. no. P9625, Sigma-Aldrich) in 20:1 ratio, and 20 µl of this mixture was added to each control and treatment well. The cells were incubated for 4 h at 37 °C and 5% CO2, and then the absorbance was recorded at 490 nm using Biotek’s Synergy Neo2 multimode plate reader (Biotek). The average absorbance value of background wells was subtracted from absorbance value of each control and treatment well, and percent cell viability ((At/A0) × 100)) was determined in each treatment well, where At is the absorbance value of the treatment well and A0 is the average absorbance value of control wells after background subtraction. The data were expressed as average percentage cell viability and fitted in non-linear regression curves using GraphPad Prism 7 (GraphPad Software, La Jolla, CA, USA).

Hela cells = test: Viability (MTS) of Hela cells; format: cell-based, human; conditions: in % (unit assumed)
Method: as §1

## Cc1ncsc1-c1ccc([C@H](C)NC(=O)[C@@H]2C[C@@H](O)CN2C(=O)[C@@H](NC(=O)CCCCCC(=O)N2CCN(CC[C@H](CSc3ccccc3)Nc3ccc(S(=O)(=O)NC(=O)c4ccc(N5CCN(CC6=C(c7ccc(Cl)cc7)CCC(C)(C)C6)CC5)cc4)cc3S(=O)(=O)C(F)(F)F)CC2)C(C)(C)C)cc1 [DT2216]
His-tagged BCL-2; BCL-2 Rep-1, 0.0195312 uM, 0.0195312 µM
  Alpha signal normalised to Maximum/Minimum (inhibition): 72.1054
His-tagged BCL-2; BCL-2 Rep-1, 0.0195312 uM
  inhibition at 0.0195312 µM: 69.3%
His-tagged BCL-2; BCL-2 Rep-1, 0.078125 uM, 0.078125 µM
  Alpha signal normalised to Maximum/Minimum (inhibition): 96.9363
His-tagged BCL-2; BCL-2 Rep-1, 0.078125 uM
  inhibition at 0.078125 µM: 96.6%
His-tagged BCL-2; BCL-2 Rep-1, 0.3125 uM, 0.3125 µM
  Alpha signal normalised to Maximum/Minimum (inhibition): 99.419
His-tagged BCL-2; BCL-2 Rep-1, 0.3125 uM
  inhibition at 0.3125 µM: 100%
His-tagged BCL-2; BCL-2 Rep-1, 1.25 uM, 1.25 µM
  Alpha signal normalised to Maximum/Minimum (inhibition): 99.6178
His-tagged BCL-2; BCL-2 Rep-1, 1.25 uM
  inhibition at 1.25 µM: 99.6%
His-tagged BCL-2; BCL-2 Rep-1, 5 uM, 5 µM
  Alpha signal normalised to Maximum/Minimum (inhibition): 99.391
His-tagged BCL-2; BCL-2 Rep-1, 5 uM
  inhibition at 5 µM: 100%
His-tagged BCL-2; BCL-2 Rep-2, 0.00488281 uM
  Alpha signal (raw counts): 457290 and 444842
His-tagged BCL-2; BCL-2 Rep-2, 0.0195312 uM, 0.0195312 µM
  Alpha signal normalised to Maximum/Minimum (inhibition): 73.927
His-tagged BCL-2; BCL-2 Rep-2, 0.0195312 uM
  inhibition at 0.0195312 µM: 72.6%
His-tagged BCL-2; BCL-2 Rep-2, 0.078125 uM, 0.078125 µM
  Alpha signal normalised to Maximum/Minimum (inhibition): 98.4863
His-tagged BCL-2; BCL-2 Rep-2, 0.078125 uM
  inhibition at 0.078125 µM: 98.1%
His-tagged BCL-2; BCL-2 Rep-2, 0.3125 uM, 0.3125 µM
  Alpha signal normalised to Maximum/Minimum (inhibition): 98.9063
His-tagged BCL-2; BCL-2 Rep-2, 0.3125 uM
  inhibition at 0.3125 µM: 98.5%
His-tagged BCL-2; BCL-2 Rep-2, 1.25 uM, 1.25 µM
  Alpha signal normalised to Maximum/Minimum (inhibition): 100.524
His-tagged BCL-2; BCL-2 Rep-2, 1.25 uM
  inhibition at 1.25 µM: 101%
His-tagged BCL-2; BCL-2 Rep-2, 5 uM, 5 µM
  Alpha signal normalised to Maximum/Minimum (inhibition): 100.141
His-tagged BCL-2; BCL-2 Rep-2, 5 uM
  inhibition at 5 µM: 99.9%
His-tagged BCL-2; BCL-2 Rep-2, plate row B, 5 uM
  Alpha signal (raw counts): 15606 and 13933
His-tagged BCL-2; BCL-2 Rep-2, plate row C, 1.25 uM
  Alpha signal (raw counts): 9913 and 10759
His-tagged BCL-2; BCL-2 Rep-2, plate row D, 0.3125 uM
  Alpha signal (raw counts): 27814 and 24179
His-tagged BCL-2; BCL-2 Rep-2, plate row E, 0.078125 uM
  Alpha signal (raw counts): 30701 and 27663
His-tagged BCL-2; BCL-2 Rep-2, plate row F, 0.0195312 uM
  Alpha signal (raw counts): 242422 and 231401
His-tagged BCL-2; BCL-2 Rep-2, plate row H, 0.0012207 uM
  Alpha signal (raw counts): 765240 and 763074
His-tagged BCL-2; BCL-2 Rep-2, plate row I, 0.000305176 uM
  Alpha signal (raw counts): 762866 and 759346
His-tagged BCL-2; BCL-2 Rep-2, plate row J, 7.62939e-5 uM
  Alpha signal (raw counts): 726537 and 792609
His-tagged BCL-2; BCL-2 Rep-2, plate row K, 1.90735e-5 uM
  Alpha signal (raw counts): 756626 and 814053
293T cells; 0.00137174 uM
  293T cell viability, MTS absorbance 490 as percent of control, mean of three wells, left block of Plate 29: 100.343
  293T cell viability, MTS absorbance 490 as percent of untreated control, single replicate well: 104.404 and 98.1429 and 94.4287
293T cells; 0.00137174 uM, Plate 29 normalised with blank 0.332667 and control 0.923167 of Plate 30, 0.00137174 µM
  293T cell viability, MTS absorbance 490 as percent of control, single replicate well, left block of Plate 29: 99.4764 and 95.6851
293T cells; 0.00411523 uM
  293T cell viability, MTS absorbance 490 as percent of control, mean of three wells, left block of Plate 29: 98.6099
  293T cell viability, MTS absorbance 490 as percent of untreated control, single replicate well: 102.282 and 94.7471 and 94.8532
293T cells; 0.00411523 uM, Plate 29 normalised with blank 0.332667 and control 0.923167 of Plate 30, 0.00411523 µM
  293T cell viability, MTS absorbance 490 as percent of control, single replicate well, left block of Plate 29: 96.0101 and 96.1184
293T cells; 0.037037 uM
  293T cell viability, MTS absorbance 490 as percent of control, mean of three wells, left block of Plate 29: 101.101
  293T cell viability, MTS absorbance 490 as percent of untreated control, single replicate well: 91.8819 and 102.706
293T cells; 0.037037 uM, Plate 29 normalised with blank 0.332667 and control 0.923167 of Plate 30, 0.037037 µM
  293T cell viability, MTS absorbance 490 as percent of control, single replicate well, left block of Plate 29: 93.0854 and 104.134
293T cells; 0.111111 uM
  293T cell viability, MTS absorbance 490 as percent of control, mean of three wells, left block of Plate 29: 100.235
  293T cell viability, MTS absorbance 490 as percent of untreated control, single replicate well: 93.8981 and 94.0042
293T cells; 0.111111 uM, Plate 29 normalised with blank 0.332667 and control 0.923167 of Plate 30, 0.111111 µM
  293T cell viability, MTS absorbance 490 as percent of control, single replicate well, left block of Plate 29: 95.1435 and 95.2519
293T cells; 0.333333 uM
  293T cell viability, MTS absorbance 490 as percent of control, mean of three wells, left block of Plate 29: 99.5125
  293T cell viability, MTS absorbance 490 as percent of untreated control, single replicate well: 110.453 and 97.4001 and 86.682
293T cells; 0.333333 uM, Plate 29 normalised with blank 0.332667 and control 0.923167 of Plate 30, 0.333333 µM
  293T cell viability, MTS absorbance 490 as percent of control, single replicate well, left block of Plate 29: 112.042 and 98.7182 and 87.7776
293T cells; 1 uM
  293T cell viability, MTS absorbance 490 as percent of control, mean of three wells, left block of Plate 29: 99.007
  293T cell viability, MTS absorbance 490 as percent of untreated control, single replicate well: 109.179 and 101.433 and 82.4372
293T cells; 1 uM, Plate 29 normalised with blank 0.332667 and control 0.923167 of Plate 30, 1 µM
  293T cell viability, MTS absorbance 490 as percent of control, single replicate well, left block of Plate 29: 110.742 and 102.834 and 83.4447
293T cells; 3 uM
  293T cell viability, MTS absorbance 490 as percent of control, mean of three wells, left block of Plate 29: 87.4526
  293T cell viability, MTS absorbance 490 as percent of untreated control, single replicate well: 92.5186 and 77.1312
293T cells; 3 uM, Plate 29 normalised with blank 0.332667 and control 0.923167 of Plate 30, 3 µM
  293T cell viability, MTS absorbance 490 as percent of control, single replicate well, left block of Plate 29: 93.7353 and 78.0285
Hela cells; MTS absorbance 490, Conc 0.00137174 uM
  cell viability normalised to control wells (single replicate): 91.7776
Hela cells; MTS absorbance 490, Conc 0.00411523 uM
  cell viability normalised to control wells (single replicate): 92.3987 and 92.7536
Hela cells; MTS absorbance 490, Conc 0.037037 uM
  cell viability normalised to control wells (single replicate): 98.4324 and 86.0988
Hela cells; MTS absorbance 490, Conc 0.111111 uM
  cell viability normalised to control wells (single replicate): 97.9 and 88.8495
Hela cells; MTS absorbance 490, Conc 0.333333 uM
  cell viability normalised to control wells (single replicate): 93.1973 and 104.022
Hela cells; MTS absorbance 490, Conc 1 uM
  cell viability normalised to control wells (single replicate): 83.5256 and 94.1733
Hela cells; MTS absorbance 490, Conc 3 uM
  cell viability normalised to control wells (single replicate): 80.7749
